{"source": "paper PMC8400955", "about": "(Pharmaceuticals, 2021)", "key": {"CYP2D6": {"target": "CYP2D6 (Homo sapiens, UniProt P10635)", "sequence (P10635 whole entry)": "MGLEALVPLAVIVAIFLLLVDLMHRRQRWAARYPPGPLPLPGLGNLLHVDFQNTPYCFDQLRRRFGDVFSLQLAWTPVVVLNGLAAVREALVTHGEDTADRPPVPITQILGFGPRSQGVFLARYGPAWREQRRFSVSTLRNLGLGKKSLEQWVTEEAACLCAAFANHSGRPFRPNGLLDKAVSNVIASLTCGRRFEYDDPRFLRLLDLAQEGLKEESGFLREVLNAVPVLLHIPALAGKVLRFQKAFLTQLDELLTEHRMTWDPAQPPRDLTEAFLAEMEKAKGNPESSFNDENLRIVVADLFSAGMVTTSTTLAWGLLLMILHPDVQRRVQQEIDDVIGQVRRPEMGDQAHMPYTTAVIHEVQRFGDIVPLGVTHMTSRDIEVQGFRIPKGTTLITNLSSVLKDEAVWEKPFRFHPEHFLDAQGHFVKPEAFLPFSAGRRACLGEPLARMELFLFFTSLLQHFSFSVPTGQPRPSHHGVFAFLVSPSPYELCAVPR", "assay": "CYP phenotyping, recombinant CYP2D6", "experimental": "Bactosomes prepared from E. coli that heterologously expressed individual human CYP isoforms together with human CYP reductase were obtained from CYPEX LTD (Scotland, UK), and stored at −80 °C prior to use. […] Timepoints were taken at 0, 5, 10, 15, 20, and 30 min. Substrate disappearance was used to calculate intrinsic clearance (Clint) and half-life (t1/2). All incubations were performed in triplicate. […] The chemical inhibitors for CYP1A2, 2A6, 2B6, 2C8, 2C9, 2C19, 2D6, and 3A4 were furafylline, tranylcypromine, ticlopidine, montelukast, sulfaphenazole, N-3-benzylnirvanol, quinidine, and ketoconazole, respectively. Timepoints were collected at 0, 15, 30, 45, and 60 min, and the remaining percentage of the parent drug at each timepoint was calculated (the calculation details are available in the Supplementary Materials). All incubations were performed in triplicate.\nThe slope, k, was determined by linear regression of the natural logarithm of percent parent disappearance vs. incubation time curve. Peak areas for test article and internal standard were determined from extracted ion chromatograms. The peak area ratio was used to calculated for the results.\nThe half-life value (t1/2 rCYPi) was determined from the slope value:\nConversion of the t1/2 rCYPi (in min) into the intrinsic clearance (Clint rCYPi in μL/min/pmol) was done using the following equation:\n1.3.2 For inhibition ratio (%) (Liver microsomes with and without inhibitors) The slope value, k, was determined by linear regression of the natural logarithm of the remaining percentage of the parent drug vs. incubation time curve. If the turnover was not significant (T-test with p<0.05 was not obtained) and the percentage remaining at last time point was ≥ 80%, the k value was"}, "[1]": {"assay": "Metabolic stability in monkey hepatocytes", "assay_type": "in vitro ADME", "description": "(§1) Hepatocytes of humans (#X008001), dogs (#M00205), rats (#M00005), and mice (#M005052) were purchased from BioIVT, NY, USA. Monkey hepatocytes were procured from RILD, Shanghai, China. The metabolic stability of ZB716 in human, monkey, dog, rat and mouse hepatocytes was investigated by incubating ZB716 with human, monkey, dog, rat, and mouse hepatocytes (0.5 × 10^6 cells/mL), or with incubation medium only.\n(§2) parent disappearance vs. incubation time curve.\n(§3) Scaled-up Clint = kV/N × Scaling Factor\n(§4) metabolite formed during the reaction."}, "monkey hepatocytes": {"test_system": "monkey hepatocytes", "assay": "Metabolic stability in monkey hepatocytes", "assay_type": "in vitro ADME", "details": "1 μM", "description": "as §1, §2, §3, §4"}, "[2]": {"assay": "Metabolic stability in dog hepatocytes", "assay_type": "in vitro ADME", "description": "as §1, §2, §3, §4"}, "dog hepatocytes": {"test_system": "dog hepatocytes", "assay": "Metabolic stability in dog hepatocytes", "assay_type": "in vitro ADME", "details": "1 μM", "description": "as §1, §2, §3, §4"}, "[3]": {"assay": "4-week repeat-dose toxicity/TK study in dogs", "assay_type": "in vivo, beagle dogs", "details": "for AUC(0-t) / Cmax / Tmax: beagle, dog, plasma, po", "description": "The TK of ZB716 was investigated in a 4-week repeat-dose toxicity study in dogs. Groups of dogs (n = 3/sex/group) were orally administered ZB716 (5% EtOH, 15% PG, 5% Solutol, and 75% of 40% HP-β-CD in DI water) at dose levels of 25, 100, and 200 mg/kg/day for 4 weeks. The plasma concentration of ZB716 was measured at various times up through to 24 h post-dose on days 1 and 28. […] The lower exposure in females given 200 mg/kg/day on day 1 was likely due to emesis noted in all females in this group.\nFour-to-six-week-old Sprague Dawley rats (Crl: CD (SD)) (SPF/VAF) were purchased from Beijing Vital River Laboratory Animal Technology, Co. Ltd.). Six-month-old beagle dogs were purchased from Beijing Marshall Biotechnology Co. Ltd. Animals were quarantined/acclimated for 2–6 weeks prior to dose initiation. Both Sprague Dawley rats and beagle dogs were given oral administration of ZB716 (20% PG, 5% Solutol, and 75% of 40% HP-β-CD in water) at different dose levels. After treatment with the test articles, whole blood was collected from each study animal by puncture of the tail vein (0.4 mL of whole blood from rats) and/or the peripheral vein (0.6 mL of whole blood from dogs) into tubes containing K2EDTA at each timepoint: pre-dose, and 0.5, 1, 2, 4, 8, and 24 h post-dose. The plasma samples were divided into 2 aliquots (approximately equal in volume) and stored frozen at −75 ± 15 °C within 2 h of the collection until analysis at Pharmaron, China.\nThe stock solution of ZB716 (5.0 mg/mL) and ZB716-d6 (1 mg/mL) in ACN:DI Water = 1:1 was prepared and stored at −20 ± 5 °C. The desired serial concentrations of working reference analyte solutions were achieved by diluting a stock analyte solution with 50% acetonitrile (0.1% formic acid) in water solution. The bioanalytical LC–MS/MS method was validated for quantitative determination of ZB716 in Sprague Dawley rat plasma and beagle dog plasma, with acceptable selectivity, sensitivity, calibration curve, precision, and accuracy. This method is applicable for the determination of ZB716 in Sprague Dawley rat plasma and beagle dog plasma, with a lower limit of quantification of 20.0 ng/mL, and an upper limit of quantification of 10,000 ng/mL.\nFive microliters of diluted supernatant was injected into the LC–MS/MS system (Shimadzu LC30AD HPLC system with a SynergiTM 4 μm Fusion-RP 80 Å (50 × 2 mm) column using gradient elution and a Triple Quad 5500 mass spectrometer) for quantitative analysis. The mobile phases used were 0.1% formic acid in deionized water and 0.1% formic acid in acetonitrile. The pharmacokinetic parameters T1/2 (the biological half-life), Cmax (maximal concentration), Tmax (time at which Cmax is observed), and AUC (area under the plasma concentration–time curve) were calculated from the plasma concentration versus time data using WinNonlin (Phoenix^TM, version 8.1, Mountain View, CA, USA). All PK studies were conducted by Pharmaron in Beijing, China."}, "mouse hepatocytes": {"test_system": "mouse hepatocytes", "assay": "Metabolic stability in mouse hepatocytes", "assay_type": "in vitro ADME", "details": "1 μM", "description": "as §1, §2, §3, §4"}, "[4]": {"assay": "Metabolic stability in mouse hepatocytes", "assay_type": "in vitro ADME", "description": "as §1, §2, §3, §4"}, "[5]": {"details": "read-out: Estimated In Vitro t1/2"}, "[6]": {"details": "female, 25 mg/kg/day, day 1, PO 25 mg/kg/day, F"}, "[7]": {"details": "female, 25 mg/kg/day, day 28, PO 25 mg/kg/day, F"}, "[8]": {"details": "female, 100 mg/kg/day, day 1, PO 100 mg/kg/day, F"}, "[9]": {"details": "female, 100 mg/kg/day, day 28, PO 100 mg/kg/day, F"}, "[10]": {"details": "female, 200 mg/kg/day, day 1, PO 200 mg/kg/day, F"}, "[11]": {"details": "female, 200 mg/kg/day, day 28, PO 200 mg/kg/day, F"}, "[12]": {"details": "male, 25 mg/kg/day, day 1, PO 25 mg/kg/day, M"}, "[13]": {"details": "male, 25 mg/kg/day, day 28, PO 25 mg/kg/day, M"}, "[14]": {"details": "male, 100 mg/kg/day, day 1, PO 100 mg/kg/day, M"}, "[15]": {"details": "male, 100 mg/kg/day, day 28, PO 100 mg/kg/day, M"}, "[16]": {"details": "male, 200 mg/kg/day, day 1, PO 200 mg/kg/day, M"}, "[17]": {"details": "male, 200 mg/kg/day, day 28, PO 200 mg/kg/day, M"}}, "note": "“And” between values parts separate entries of the source, which are not always exact repeats. Equal values may be shown once.", "data": [{"molecule": "C[C@]12CC[C@@H]3c4ccc(B(O)O)cc4C[C@@H](CCCCCCCCC[S+]([O-])CCCC(F)(F)C(F)(F)F)[C@H]3[C@@H]1CC[C@@H]2O", "note": "(stereo partly drawn) [ZB716, fulvestrant-3-boronic acid]", "values": [{"measurement": "half-life at 2 µM", "setting": "CYP2D6; human", "value": "0.305 ± 0.055", "unit": "h"}, {"measurement": "Clint", "setting": "CYP2D6; recombinant CYP2D6, 2 µM ZB716", "value": "0.773 µL/min/pmol CYP and 0.773 ± 0.142 µL/min/pmol CYP"}, {"measurement": "half-life at 1 μM", "setting": "[1]; [5]", "value": "0.46 ± 0.0333", "unit": "h"}, {"measurement": "hepatocyte CLint at 1 μM", "setting": "[1]; read-out: In Vitro Clint", "value": "50.3 ± 3.6", "unit": "µL/min/1e6 cells"}, {"measurement": "CLint scaled at 1 μM", "setting": "[1]; read-out: Scaled-Up Clint", "value": "181 ± 13", "unit": "mL/min/kg"}, {"measurement": "Remaining at 120 min", "setting": "monkey hepatocytes", "value": "4.41 ± 0.46", "unit": "%"}, {"measurement": "half-life at 1 μM", "setting": "[2]; [5]", "value": "0.445 ± 0.00667", "unit": "h"}, {"measurement": "hepatocyte CLint at 1 μM", "setting": "[2]; read-out: In Vitro Clint", "value": "51.9 ± 0.7", "unit": "µL/min/1e6 cells"}, {"measurement": "CLint scaled at 1 μM", "setting": "[2]; read-out: Scaled-Up Clint", "value": "357 ± 5", "unit": "mL/min/kg"}, {"measurement": "Remaining at 120 min", "setting": "dog hepatocytes", "value": "6.99 ± 0.46", "unit": "%"}, {"measurement": "AUC(0-t)", "setting": "[3]; [6]", "value": 3880, "unit": "ng·h/mL"}, {"measurement": "Cmax", "setting": "[3]; [6]", "value": 772, "unit": "ng/mL"}, {"measurement": "Tmax", "setting": "[3]; [6]", "value": 1, "unit": "h"}, {"measurement": "AUC(0-t)", "setting": "[3]; [7]", "value": 8000, "unit": "ng·h/mL"}, {"measurement": "Cmax", "setting": "[3]; [7]", "value": 1590, "unit": "ng/mL"}, {"measurement": "Tmax", "setting": "[3]; [7]", "value": 1, "unit": "h"}, {"measurement": "AUC(0-t)", "setting": "[3]; [8]", "value": 4490, "unit": "ng·h/mL"}, {"measurement": "Cmax", "setting": "[3]; [8]", "value": 997, "unit": "ng/mL"}, {"measurement": "Tmax", "setting": "[3]; [8]", "value": 1, "unit": "h"}, {"measurement": "AUC(0-t)", "setting": "[3]; [9]", "value": 9650, "unit": "ng·h/mL"}, {"measurement": "Cmax", "setting": "[3]; [9]", "value": 1870, "unit": "ng/mL"}, {"measurement": "Tmax", "setting": "[3]; [9]", "value": 2, "unit": "h"}, {"measurement": "AUC(0-t)", "setting": "[3]; [10]", "value": 2720, "unit": "ng·h/mL"}, {"measurement": "Cmax", "setting": "[3]; [10]", "value": 583, "unit": "ng/mL"}, {"measurement": "Tmax", "setting": "[3]; [10]", "value": 2, "unit": "h"}, {"measurement": "AUC(0-t)", "setting": "[3]; [11]", "value": 14900, "unit": "ng·h/mL"}, {"measurement": "Cmax", "setting": "[3]; [11]", "value": 1810, "unit": "ng/mL"}, {"measurement": "Tmax", "setting": "[3]; [11]", "value": 2, "unit": "h"}, {"measurement": "AUC(0-t)", "setting": "[3]; [12]", "value": 1980, "unit": "ng·h/mL"}, {"measurement": "Cmax", "setting": "[3]; [12]", "value": 691, "unit": "ng/mL"}, {"measurement": "Tmax", "setting": "[3]; [12]", "value": 0.5, "unit": "h"}, {"measurement": "AUC(0-t)", "setting": "[3]; [13]", "value": 4330, "unit": "ng·h/mL"}, {"measurement": "Cmax", "setting": "[3]; [13]", "value": 1390, "unit": "ng/mL"}, {"measurement": "Tmax", "setting": "[3]; [13]", "value": 1, "unit": "h"}, {"measurement": "AUC(0-t)", "setting": "[3]; [14]", "value": 4570, "unit": "ng·h/mL"}, {"measurement": "Cmax", "setting": "[3]; [14]", "value": 1400, "unit": "ng/mL"}, {"measurement": "Tmax", "setting": "[3]; [14]", "value": 1, "unit": "h"}, {"measurement": "AUC(0-t)", "setting": "[3]; [15]", "value": 12400, "unit": "ng·h/mL"}, {"measurement": "Cmax", "setting": "[3]; [15]", "value": 3340, "unit": "ng/mL"}, {"measurement": "Tmax", "setting": "[3]; [15]", "value": 2, "unit": "h"}, {"measurement": "AUC(0-t)", "setting": "[3]; [16]", "value": 7880, "unit": "ng·h/mL"}, {"measurement": "Cmax", "setting": "[3]; [16]", "value": 1040, "unit": "ng/mL"}, {"measurement": "Tmax", "setting": "[3]; [16]", "value": 2, "unit": "h"}, {"measurement": "AUC(0-t)", "setting": "[3]; [17]", "value": 11000, "unit": "ng·h/mL"}, {"measurement": "Cmax", "setting": "[3]; [17]", "value": 2130, "unit": "ng/mL"}, {"measurement": "Tmax", "setting": "[3]; [17]", "value": 2, "unit": "h"}, {"measurement": "tolerability", "setting": "[3]; oral once daily, doses up to 200 mg/kg/day for 28 consecutive days", "value": "tolerated"}, {"measurement": "Remaining at 120 min", "setting": "mouse hepatocytes", "value": "6.24 ± 0.58", "unit": "%"}, {"measurement": "half-life at 1 μM", "setting": "[4]; [5]", "value": "0.573 ± 0.01", "unit": "h"}, {"measurement": "hepatocyte CLint at 1 μM", "setting": "[4]; read-out: In Vitro Clint", "value": "40.3 ± 0.7", "unit": "µL/min/1e6 cells"}, {"measurement": "CLint scaled at 1 μM", "setting": "[4]; read-out: Scaled-Up Clint", "value": "476 ± 8", "unit": "mL/min/kg"}]}]}
